Where a name gives a salt, the structure may show the parent alone.

The test system of one data set is VEGF. Put plainly: VEGF secretion from MM contact-activated BMSC. The class given is cell-based, human. The text has this:
p38 MAPK controls secretion of these factors in-vitro in systems representing the BM milieu.
In addition to promoting vascularization, VEGF is a growth-supporting factor for MM cells. Neovascularization of MM tumors in the marrow allows growth beyond diffusion limitations for gas and nutrient exchange. VEGF is secreted from MM contact-activated BMSC, and this secretion is inhibited by p38 MAPK inhibitor Compound 4 (FIG. 10).

Data set [1] has as its system osteolytic lesions associated with multiple myeloma. The data set can be described thus: Treatment of a patient with osteolytic lesions associated with multiple myeloma. Particulars: therapeutic amount. The class given is in vivo, human. The text has this:
A patient is diagnosed with multiple myeloma and presents with a number of holes or osteolytic lesions. The osteolytic lesions are caused by the rapid growth of myeloma cells, which displace osteoblasts, and disrupting the balance of bone creation and destruction. […] Osteoblast activity is increased relative to osteoclast activity. Pain from bone destruction, fracture and the like is reduced. The osteolytic lesions are caused by the rapid growth of myeloma cells, which displace osteoblasts, and disrupting the balance of bone creation and destruction. […] Osteoblast activity is increased relative to osteoclast activity. Pain from bone destruction, fracture and the like is reduced.

The next data set deals with T1, COX-1 (Homo sapiens, UniProt P23219).
T1 construct: a platelet-derived preparation of COX-1; from tissue; host or cells: platelets
Put plainly: Activity of platelet-derived preparation of COX-1. The format is biochemical.

For a further data set, the system named is RPMI. Put plainly: MM cell proliferation, RPMI. The format is cell-based. The conditions noted are these: 72-hour exposure.
The next data set deals with MIP-1α. The data set can be described thus: MIP-1α production in MM/BMSC co-cultures. The format is cell-based, human. The text has this:
MIP-1α elevation in MM patient serum correlates with disease severity. Unlike many MM-relevant cytokines present in the marrow microenvironment, which are produced mainly by the activated BMSC, MM cells are the primary source of MIP-1α. IL-1 further induces MIP-1α production.

The test system of another data set is PGE2. Put plainly: PGE2 levels in LPS-induced human whole blood. The class given is cell-based.
Another data set concerns the target T2, COX-2 enzyme (Homo sapiens, UniProt P35354).
T2 sequence (P35354 18-604): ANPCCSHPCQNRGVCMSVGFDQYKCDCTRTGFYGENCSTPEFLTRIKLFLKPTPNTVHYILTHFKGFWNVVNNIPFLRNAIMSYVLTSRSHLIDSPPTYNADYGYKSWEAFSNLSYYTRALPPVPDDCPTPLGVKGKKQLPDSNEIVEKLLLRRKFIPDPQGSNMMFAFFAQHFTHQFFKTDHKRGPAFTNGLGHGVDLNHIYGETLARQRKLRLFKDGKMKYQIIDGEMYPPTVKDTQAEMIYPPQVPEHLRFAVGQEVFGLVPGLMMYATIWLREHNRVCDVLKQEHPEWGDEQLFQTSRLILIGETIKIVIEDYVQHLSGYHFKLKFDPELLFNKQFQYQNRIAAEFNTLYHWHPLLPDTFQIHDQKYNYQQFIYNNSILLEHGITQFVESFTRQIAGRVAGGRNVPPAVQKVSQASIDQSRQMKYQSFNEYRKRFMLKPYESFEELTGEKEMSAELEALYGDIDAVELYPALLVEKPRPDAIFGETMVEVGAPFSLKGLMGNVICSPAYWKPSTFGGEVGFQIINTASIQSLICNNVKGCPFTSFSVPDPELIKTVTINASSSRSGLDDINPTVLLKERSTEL
Put plainly: Activity of purified COX-2 enzyme. The class given is biochemical.

The next data set concerns IL-11. The data set can be described thus: IL-1 and TGFβ induction of IL-11 in BMSC and MM/BMSC cultures. The format is cell-based, human. Particulars: 100 nM. The text has this:
p38 MAPK controls secretion of these factors in-vitro in systems representing the BM milieu. […] IL-11 elicits pro-fibrotic responses and promotes osteoclast-driven bone resorption.

Data set [2] concerns human myeloma (RPM18266) tumor. The data set can be described thus: Human myeloma xenograft plasmacytoma model in beige-nude-xid mouse. The class given is in vivo. On the procedure: The p38 MAPK signaling pathway plays an important role in different pathological conditions and specific inhibitors of p38 alpha and beta MAPK block production of the major inflammatory cytokines. Human multiple myeloma (MM) is an incurable neoplasm of terminally differentiated B cells and MM disease progression is affected by immunoregulatory elements such as IL-6 and other cytokines. […] Treatment (90 mg/kg/bid by oral gavage) is initiated in mice with palpable tumor size (˜200 mm^3) as judged by tumor volume.
(In general: Xenograft models place foreign cells or tissue in a host animal.)

The subject of another data set is COX-2 mRNA. Put plainly: LPS-induced COX-2 mRNA. The format is cell-based, human.
The next data set concerns BMSC. The data set can be described thus: BMSC viability, MTS assay of respiratory activity. The format is cell-based, human. The conditions noted are these: tested up to 50-fold excess of active concentration. Here is the method: Neither p38 MAPK inhibition nor high concentrations of p38 MAPK inhibitor (tested up to 50-fold excess of active concentration) affected BMSC viability (FIG. 4). Viability was measured using a standard enzymatic assay of respiratory activity, MTS (3-(4,5-dimethylthiazol-2-yl)-5-(3-carboxymethoxyphenyl)-2-(4-sulfophenyl)-2H-tetrazolium). Results obtained with the p38 MAPK inhibitor are in agreement with published results using a different p38α MAPK inhibitor.
On the technique in general: Tetrazolium assays rely on reduction of a dye to a coloured formazan, in cell work by metabolically active cells.

The next data set has as its system RANKL mRNA. Put plainly: RANKL mRNA in BMSC and MM/BMSC cultures. The format is cell-based, human. Particulars: 100 nM. Here is the method: In addition, 100 nM of these p38 MAPK inhibitors blocks the weaker induction of RANKL by IL-6 in BMSC.
For a further data set, the system named is ARH-77. Put plainly: MM cell proliferation, ARH-77. The format is cell-based. The conditions noted are these: ARH-77, 72-hour exposure.
Another data set concerns IL-1β. The data set can be described thus: LPS-induced IL-1β release in human whole blood. Particulars: human whole blood (undiluted). The class given is cell-based. The text has this:
IL-1β illustrates the importance of amplification loops in myeloma-induced cytokine stimulation. IL-1β plays a well-documented role in the induction of multiple cytokines in a “cytokine network” of feedback loops, including strong induction of IL-6. The ability of IL-1 to increase mRNA expression and induce secretion of the MM-relevant cytokines from MM/BMSC cultures is evidence of this role.

Data set [3] deals with arthritic lesions in the hind paws. Put plainly: Chick type II collagen arthritis in rats with established disease. The format is in vivo, rat. On the procedure:
Rats treated intradermally with chick type II collagen develop arthritic lesions in the hind paws similar to human arthritic joints with respect to accumulation of pannus tissue, presence of inflammatory cells, and increased expression of inflammatory cytokines. […] Animals were scored daily by an observer blinded with respect to treatment regimen. At the completion of the study on Day 28, radiographic images were analyzed in a blinded manner, based upon the extent of soft tissue swelling, joint space narrowing, and bone destruction. Animal weights at the beginning and end of the study were also recorded, as weight loss is associated with disease progression in this model.

For a further data set, the system named is IM9. The data set can be described thus: MM cell proliferation, IM9. The format is cell-based. Particulars: IM9, 72-hour exposure.
The test system of data set [4] is primary murine marrow derived osteoclast precursors. The data set can be described thus: Osteoclast differentiation, primary murine marrow derived osteoclast precursors. The conditions noted are these: di-hydroxy vitamin D induced differentiation; for mature osteoclast formation: 100 nM; for mature osteoclast formation prevented: increasing doses. The class given is cell-based. Here is the method:
Inhibition of p38α MAPK prevented osteoclast differentiation in two types of standard in vitro models. In the first, primary murine marrow derived osteoclast precursors are cultured in the presence of di-hydroxy vitamin D to induce differentiation. […] In the second model, primary human marrow-derived osteoclast precursors are cultured in the presence of dihydroxy vitamin D [(OH)2D3] to induce differentiation. In both cases, 100 nM of the exemplary p38 MAPK inhibitors prevents osteoclast formation as measured by tartrate resistant acid phosphatase (TRAP) staining or by staining with 23c6 (a mature osteoclast cell surface marker)(FIG. 14).

A further data set deals with U266B. Put plainly: MM cell proliferation, U266B. The class given is cell-based. Particulars: 72-hour exposure.
Another data set relates to TNF-α. The data set can be described thus: LPS-induced TNF-α secretion in whole blood. The class given is cell-based, human. Here is the method: Other in vitro assays can assess the production of TNF-a as a correlation to p38 MAP kinase activity. One such example is a Human Whole Blood Assay. In this assay, venous blood is collected from, e.g., healthy male volunteers into a heparinized syringe and is used within 2 hours of collection. Test compounds are dissolved in 100% DMSO and 1 μl aliquots of drug concentrations ranging from 0 to 1 mM are dispensed into quadruplicate wells of a 24-well microtiter plate (Nunclon Delta SI, Applied Scientific Co., San Francisco, Calif.). Whole blood is added at a volume of 1 ml/well and the mixture is incubated for 15 minutes with constant shaking (Titer Plate Shaker, Lab-Line Instruments, Inc., Melrose Park, Ill.) at a humidified atmosphere of 5% CO2 at 37° C. Whole blood is cultured either undiluted or at a final dilution of 1:10 with RPMI 1640 (Gibco 31800+NaHCO3, Life Technologies, Rockville, Md. and Scios, Inc., Sunnyvale, Calif.). At the end of the incubation period, 10 μl of LPS (E. coli 0111:B4, Sigma Chemical Co., St. Louis, Mo.) is added to each well to a final concentration of 1 or 0.1 μg/ml for undiluted or 1:10 diluted whole blood, respectively. The incubation is continued for an additional 2 hours. The reaction is stopped by placing the microtiter plates in an ice bath, and plasma or cell-free supernates are collected by centrifugation at 3000 rpm for 10 minutes at 4° C. […]

T1 sequence (P23219 24-599): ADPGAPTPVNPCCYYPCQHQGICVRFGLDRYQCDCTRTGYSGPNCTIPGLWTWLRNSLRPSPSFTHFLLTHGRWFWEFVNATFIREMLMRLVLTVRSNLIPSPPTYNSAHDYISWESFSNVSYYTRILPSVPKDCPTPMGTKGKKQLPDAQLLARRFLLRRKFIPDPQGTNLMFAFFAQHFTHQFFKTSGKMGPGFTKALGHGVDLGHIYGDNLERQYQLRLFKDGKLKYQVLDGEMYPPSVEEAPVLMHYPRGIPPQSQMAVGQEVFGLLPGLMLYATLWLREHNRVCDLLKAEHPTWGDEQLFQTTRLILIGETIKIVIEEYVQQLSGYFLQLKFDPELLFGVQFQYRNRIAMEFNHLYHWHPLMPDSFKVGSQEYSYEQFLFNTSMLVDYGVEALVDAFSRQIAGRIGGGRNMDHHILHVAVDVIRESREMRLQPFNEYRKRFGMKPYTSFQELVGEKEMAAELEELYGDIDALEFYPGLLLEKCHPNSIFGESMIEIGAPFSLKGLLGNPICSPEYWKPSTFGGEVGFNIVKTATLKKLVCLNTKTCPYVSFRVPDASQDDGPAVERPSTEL

For `COC(=O)C(=O)c1cn(C(=O)c2ccc(Cl)cc2)c2cc(OC)c(C(=O)N3CCC(Cc4ccccc4)CC3)cc12` [Compound 4], the VEGF secretion result with VEGF is given as “inhibited”.
In the case of `C[C@@H]1CN(Cc2ccc(F)cc2)[C@@H](C)CN1C(=O)c1cc2c(C(=O)C(=O)N(C)C)cn(C)c2cc1Cl` [Compound 57 hydrochloride salt], the “pain from bone destruction, fracture and the like” value in [1] is given as “reduced”.
With `C[C@@H]1CN(Cc2ccc(F)cc2)[C@@H](C)CN1C(=O)c1cc2c(C(=O)C(=O)N(C)C)cn(C)c2cc1Cl` [Compound 57], at COX-1, the “activity of a platelet-derived preparation of COX-1” value is on record as “nor did it inhibit”. Also, the reduction in proliferation entry in the data set on RPMI, in the data set on ARH-77, in the data set on IM9 and in the data set on U266B was “about 20%” in each case. Moreover, the “IL-1-induced production of MIP-1α” value in the data set on MIP-1α was “substantially reduce”. In addition, the “untreated production of MIP-1α” value in the data set on MIP-1α is “substantially reduce”. For the same compound, in the data set on PGE2, the PGE2 levels entry is “reduced”. Besides, the “activity of the purified COX-2 enzyme” value at COX-2 enzyme is “did not directly inhibit”. The “IL-1 and TGFβ induction of IL-11 at the mRNA and protein levels” value in the data set with IL-11 (BMSC cultures) and with IL-11 (MM/BMSC cultures) was “blocked” throughout. Further, in [2] (mouse, in vivo), the “HSP27 expression in tumor cells” value was “significantly reduce”. In addition, the “p38 expression in tumor cells” value in data set [2] (mouse, in vivo) is “significantly reduce”. For the same compound, the tumor volume result in data set [2] (palpable tumors (~200 mm^3), 90 mg/kg/bid oral gavage, 21 days) is reported as “significantly reduced”; in data set [2] (treatment initiated at pronounced tumor size (~800 mm^3)) it was “significant reduction”. Also, in data set [2] (vs vehicle), the “number of neoformed microvessels, histological assessment” value is “significant reduction”. Also, the “tumor volume, histological assessment at the end of dosing” value in [2] (vs vehicle) was “significant reduction”. Besides, in the data set with COX-2 mRNA, the “LPS-induced COX-2 mRNA” value is “inhibited”. Also, the BMSC viability entry with BMSC is “Neither p38α MAPK inhibition nor high concentrations of Compound 57 (tested up to 50-fold excess of active concentration) affected BMSC viability”. The “basal expression of RANKL mRNA” value in the data set on RANKL mRNA is given as “blocked”. For the same compound, the “RANKL mRNA induction by TGFβ and IL-1” value in the data set with RANKL mRNA (BMSC cultures) and in the data set on RANKL mRNA (MM/BMSC cultures) was “blocked” throughout. The “induction of RANKL by IL-6” value in the data set on RANKL mRNA (BMSC) was “blocks”. Further, in the data set on IL-1β, the “LPS-induced IL-1β release” value is given as “dose-dependent reduction”. For the same compound, the clinical score entry was “intermediate between the vehicle and 40 mg/kg groups” in data set [3] (10 mg/kg orally once a day); “statistically significant improvement” in data set [3] (40 mg/kg orally once a day, from third day of treatment to Day 28, vs vehicle). Also, the mature osteoclast formation result in data set [4] is “complete blockage”. Also, the “mature osteoclast formation prevented” value in [4] was “in a dose dependent manner”. Besides, the “LPS-induced TNF-α secretion” value with TNF-α is “dose-dependent reduction”.
In the case of `CN(C)C(=O)C(=O)c1c[nH]c2cc(Cl)c(C(=O)N3CCC(Cc4ccc(F)cc4)CC3)cc12` [Compound 162], in data set [4], the mature osteoclast formation entry is reported as “complete blockage” and the “mature osteoclast formation prevented” value is reported as “in a dose dependent manner”.

The values are drawn from US20060058296A1, “Treatment of osteolytic lesions associated with multiple myeloma by inhibition of p38 map kinase” (Scios, Inc., priority 2003, published 2006).
